According to patent publication US20240059740A1, “CYCLIC PEPTIDES AND USES THEREOF” (PRE[…] INC., priority 2020, published 2024):
Residues, ends and D or L forms follow the SMILES beside them.

Tests used:
Assay type in all cases: cell-based, human
[1] = test system: MMP-2; experiment: Gelatin zymography of conditioned media, MMP-2 production; settings: for metalloprotease production, MMP-2: compared to control containing no peptide
Description: To assess whether the peptide SEQ ID NO.1 impacted MMP-2, MMP-9 and uPA production Zymography was used.
Zymography is a technique for studying hydrolytic enzymes on the basis of substrate degradation. The in-gel zymography hydrolytic enzymes are separated by their molecular weights and detected by their ability to degrade a substrate. To detect the activity of MMP-2 and MMP-9 in various cell lines, conditioned media were collected in 3 independent experiments and analysed by gelatin zymography to quantify the level of gelatin digestion, which reflects MMP-2 and MMP-9 activity and production. Casein-Plasminogen zymography was conducted to determine the activity level of uPA in the conditioned medium from various cell lines. Active uPA converts plasminogen into plasmin which then digests casein, thus clear bands where digestion of casein have occurred indirectly represent uPA activity.
The effect of the peptides on matrix protease production was tested using in-gel zymography. If the substrate included in the gel is gelatin, the enzymes detected are gelatinases: MMP-2 and MMP-9 (the latter is often of low abundance). If the gel contains casein and plasminogen, the enzymes tested are urokinase plasminogen activators (uPA); uPA is a therapeutic target in GBM.
An equal amount of protein from each sample was mixed with 5 μL of Laemmli buffer (0.01% Bromophenol Blue (W/V), 5% SDS (W/V), 22% glycerol (V/V), 14% 0.5 M Tris pH 6.8 (V/V)) and loaded onto a 10% polyacrylamide gel co-polymerized with 1 mg/ml of gelatin, and electrophoresed at 120 V for 2 hours on ice. The gel was incubated in […] solution (Triton X-100 2.5% (V/V), 1 M Tris pH 7.5 5% (V/V), 0.5 M CaCl2 1% (W/V) at room temperature overnight on an orbital shaker. The gel was incubated in a second solution for 3 hours at 37° C. The gel was then stained with Coomassie blue solution (Coomassie blue 0.25%, methanol 45%, acetic acid 10%) and destained in methanol 25% (V/V), acetic acid 10% (V/V) destaining solution until clear bands against the dark background appeared around 72 kDa and 95 kDa, representing MMP-2 and MMP-9 activity, respectively. Clear bands around 50 kDa appeared against the dark background representing uPA activity. The gels were scanned, and uPA, MMP-2 and MMP-9 were quantified by densitometry using NIH Image J software.
SEQ ID NO.1 was compared to a control containing no peptide to evaluate whether the peptide can reduce the production of matrix proteinases. […] This could be confirmed using a MMP-9 quantification kit, and altered production by a transcriptional mechanism can be unveiled using qRT-PCR.

[2] = test system: CDH-2 (N-cadherin) mRNA; experiment: Real time RT-PCR, CDH-2 (N-cadherin) mRNA expression
Description: (§1) The real-time reverse transcription polymerase chain reaction (RT-PCR) uses fluorescent reporter molecules to monitor the production of amplification products during each cycle of the PCR reaction. This combines the nucleic acid amplification and detection steps into one homogeneous assay and use of appropriate chemistries and data analysis eliminates the need for Southern blotting or DNA sequencing for amplicon identification. Its simplicity, specificity and sensitivity, together with its potential for high throughput and the ongoing introduction of new chemistries, more reliable instrumentation and improved protocols, has made real-time RT-PCR the benchmark technology for the detection and/or comparison of RNA levels.’
(§2) In order to detect and quantify the expression of specific genes at mRNA level, real-time reverse transcriptase polymerase chain reaction (Real time RT-PCR) was performed. Total RNA of samples was isolated and purified using the PureLink® RNA Mini Kit (Life technologies). The concentration of total RNA was detected by NanoDrop 2000 Spectrophotometer (Thermo Scientific). The total RNA (2000 ng) was reverse transcribed using the High-Capacity cDNA Reverse Transcription Kit (Applied Biosystems™).
(§3) The primers of target genes were TaqMan™ Gene Expression Assay for human PLAU (Hs01547054_m1), MMP-2 (Hs01548727_m1), MMP-9 (Hs00957562_m1), Snail-1 (Hs00195591_m1), Snail-2 (Hs00161904_m1), N-cadherin (Hs00983056_m1) and Twist (Hs01675818_s1). Relative quantification was done by reference to 18S ribosomal RNA (18S rRNA) and analysed using the comparative critical threshold (Ct) method
(§4) The mRNA expression of MMPs was measured using qRT-PCR. This was tested three independent times; the results are shown in Tables 9, 10 and 11 for U251, U87 cells and O81024 cells respectively. Results are reported as percent of the control cells (no treatment). Both MMP-2 and uPA were decreased in U251 by SEQ ID NO.1.
(§5) Epithelial-mesenchymal transition (EMT) is the process by which epithelial cells acquire a migratory (metastatic) phenotype and so EMT is associated with cancer metastasis, cancer cell stemness, chemoresistance and immune resistance. Therefore, the determination of the mRNA expression of EMT markers is a valuable tool to evaluate invasion potential of cancer cells.
The ‘Snail’ superfamily is involved in cell differentiation and survival, two processes central in cancer research. Snail-1 has a pivotal role in the regulation of epithelial-mesenchymal transition (EMT) and Snail-1 expression is associated with poor prognosis in metastatic cancer, and tumours with elevated Snail-1 expression are harder to treat. […]

[3] = test system: Snail-1 mRNA; experiment: Real time RT-PCR, Snail-1 mRNA expression
Description: as §1, §2, §3, §4, §5
The ‘Snail’ superfamily is involved in cell differentiation and survival, two processes central in cancer research. Snail-1 has a pivotal role in the regulation of epithelial-mesenchymal transition (EMT) and Snail-1 expression is associated with poor prognosis in metastatic cancer, and tumours with elevated Snail-1 expression are harder to treat. The significance of Snail-1 as a prognostic indicator, its involvement in the regulation of EMT and metastasis, and its roles in both drug and immune resistance point out that Snail-1 is an attractive target for tumour growth inhibition and a target for sensitization to cytotoxic drugs (Kaufhold et al., 2014). Twist is transcriptionally active during cell differentiation and lineage determination. During the establishment of cancer metastases by EMT, Twist acts independently of Snail to suppress E-cadherin and to upregulate N-cadherin (CDH-2) and fibronectin. Snail-2 (Slug) is another member of the SNAIL family of transcriptional activators and serves an important role in suppressing the epithelial phenotype in numerous cancer cells (Iwadate, 2016).

[4] = U87 cells, baseline expression level = 1

CC(C)C[C@@H]1NC(=O)[C@H](C)NC(=O)[C@@H](NC(=O)[C@@H]2CCCN2C(=O)[C@@H](N)CC(C)C)CSSC(C)(C)CNC(=O)CC[C@@H](C(=O)N[C@@H](CCCNC(=N)N)C(N)=O)NC(=O)[C@H](CC(=O)O)NC(=O)[C@H](CC(N)=O)NC1=O [SEQ ID NO: 1, Leu-Pro-c(SSA*-Ala-Leu-Asn-Asp-Glu)-Arg-NH2] (HELM PEPTIDE1{L.P.C.A.L.N.D.E.R.[am]}|CHEM1{[CC(C)(CN[*:2])S[*:1]]}$PEPTIDE1,CHEM1,3:R3-1:R1|PEPTIDE1,CHEM1,8:R3-1:R2$$$V2.0; N-terminus assumed)
metalloprotease production, MMP-2 ([1]; 081024 cells): 106.4 | metalloprotease production, MMP-2 ([1]; U87 cells): 102.1 | metalloprotease production, MMP-2 ([1]; U251 cells): 110.2 | production of MMP-2 (overall, in words) ([1]; overall, all cell lines): did not decrease | mRNA expression, CDH-2 ([2]; 081024 cells, baseline expression level = 1): 0.91 | mRNA expression, CDH-2 [2, 4]: 0.98 | mRNA expression, CDH-2 ([2]; U251 cells, relative to control (no treatment)): 0.82 | mRNA expression, CDH-2 (in words) ([2]; cell line not specified): non-statistical decrease in expression | mRNA expression, Snail-1 ([3]; 081024 cells, baseline expression level = 1, listed as SEQ ID NO. 1): 0.60 | mRNA expression, Snail-1 ([3]; 081024 cells, baseline expression level = 1, listed as SEQ ID NO.1): halved | mRNA expression, Snail-1 [3, 4]: 0.84 | mRNA expression, Snail-1 ([3]; U251 cells, relative to control (no treatment), listed as SEQ ID NO. 1): 0.42 | mRNA expression, Snail-1 ([3]; U251 cells, relative to control (no treatment), listed as SEQ ID NO.1): decreased
